{"source": "the kinase profiling compilation of Christmann-Franck et al. (2016)", "experiment_in_all_cases": "KINOMEscan competition binding", "conditions_in_all_cases": "compound 10.0 µM", "key": {"[1]": {"target": "MAST1 (human) (UniProt Q9Y2H9)"}, "[2]": {"target": "IRAK4 (human) (UniProt Q9NWZ3)"}, "[3]": {"target": "RPS6KA2 KD1 (human) (UniProt Q15349)"}, "[4]": {"target": "PAK1 (human) (UniProt Q13153)", "sequence (Q13153 whole entry, looked up)": "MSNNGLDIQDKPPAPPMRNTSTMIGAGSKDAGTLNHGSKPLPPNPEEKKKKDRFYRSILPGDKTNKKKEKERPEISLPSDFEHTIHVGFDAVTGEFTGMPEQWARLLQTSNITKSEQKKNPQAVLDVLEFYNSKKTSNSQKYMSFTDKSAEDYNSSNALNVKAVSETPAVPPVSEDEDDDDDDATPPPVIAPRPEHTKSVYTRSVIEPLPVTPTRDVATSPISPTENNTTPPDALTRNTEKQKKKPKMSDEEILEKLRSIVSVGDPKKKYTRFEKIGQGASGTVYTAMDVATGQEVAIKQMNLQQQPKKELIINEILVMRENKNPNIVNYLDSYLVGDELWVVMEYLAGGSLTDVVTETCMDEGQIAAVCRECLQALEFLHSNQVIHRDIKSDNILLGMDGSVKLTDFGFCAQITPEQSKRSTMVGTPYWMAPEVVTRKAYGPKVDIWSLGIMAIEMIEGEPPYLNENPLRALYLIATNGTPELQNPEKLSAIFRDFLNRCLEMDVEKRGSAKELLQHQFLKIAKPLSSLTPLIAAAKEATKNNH"}, "[5]": {"target": "STK11 (human) (UniProt Q15831)"}, "[6]": {"target": "MATK (human) (UniProt P42679)", "sequence (P42679 whole entry, looked up)": "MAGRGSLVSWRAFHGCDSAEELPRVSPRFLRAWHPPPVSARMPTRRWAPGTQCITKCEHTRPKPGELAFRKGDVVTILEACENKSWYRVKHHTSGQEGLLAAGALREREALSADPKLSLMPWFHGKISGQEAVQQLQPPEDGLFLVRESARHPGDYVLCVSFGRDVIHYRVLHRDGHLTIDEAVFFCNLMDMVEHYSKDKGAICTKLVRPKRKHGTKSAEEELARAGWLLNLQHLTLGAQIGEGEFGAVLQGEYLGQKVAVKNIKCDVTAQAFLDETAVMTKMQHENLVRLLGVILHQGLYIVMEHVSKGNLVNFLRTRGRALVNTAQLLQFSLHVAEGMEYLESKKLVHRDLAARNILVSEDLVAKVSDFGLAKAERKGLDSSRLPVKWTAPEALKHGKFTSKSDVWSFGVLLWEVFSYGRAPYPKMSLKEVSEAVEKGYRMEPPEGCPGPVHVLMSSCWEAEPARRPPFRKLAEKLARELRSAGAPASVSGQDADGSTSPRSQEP"}, "[7]": {"target": "CLK2 (human) (UniProt P49760)"}, "[8]": {"target": "BRAF (human) (UniProt P15056)"}, "[9]": {"target": "ACVR2B (human) (UniProt Q13705)"}, "[10]": {"target": "PDPK1 (human) (UniProt O15530)"}, "[11]": {"target": "AAK1 (human) (UniProt Q2M2I8)"}, "[12]": {"target": "MAPK4 (human) (UniProt P31152)"}, "[13]": {"target": "CSNK2A1 (human) (UniProt P68400)"}, "[14]": {"target": "RPS6KA1 KD2 (human) (UniProt Q15418)"}, "[15]": {"target": "BMPR1B (human) (UniProt O00238)"}, "[16]": {"target": "STK33 (human) (UniProt Q9BYT3)", "sequence (Q9BYT3 whole entry, looked up)": "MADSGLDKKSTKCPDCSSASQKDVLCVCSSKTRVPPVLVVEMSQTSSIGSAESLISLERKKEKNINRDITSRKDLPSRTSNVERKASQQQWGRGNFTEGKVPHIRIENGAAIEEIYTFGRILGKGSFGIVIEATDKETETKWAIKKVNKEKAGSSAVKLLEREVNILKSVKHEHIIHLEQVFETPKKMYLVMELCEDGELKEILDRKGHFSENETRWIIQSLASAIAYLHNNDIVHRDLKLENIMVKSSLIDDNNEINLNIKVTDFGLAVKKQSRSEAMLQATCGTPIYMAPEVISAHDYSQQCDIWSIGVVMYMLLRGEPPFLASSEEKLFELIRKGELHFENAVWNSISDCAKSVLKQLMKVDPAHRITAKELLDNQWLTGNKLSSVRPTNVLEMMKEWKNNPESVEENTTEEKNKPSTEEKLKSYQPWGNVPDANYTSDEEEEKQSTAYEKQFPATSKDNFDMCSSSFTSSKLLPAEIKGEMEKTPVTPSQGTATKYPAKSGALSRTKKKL"}, "[17]": {"target": "MAP3K5 (human) (UniProt Q99683)"}, "[18]": {"target": "MAP2K5 (human) (UniProt Q13163)"}, "[19]": {"target": "MAPK11 (human) (UniProt Q15759)"}, "[20]": {"target": "BMPR1A (human) (UniProt P36894)"}, "[21]": {"target": "RPS6KA4 KD2 (human) (UniProt O75676)"}, "[22]": {"target": "EIF2AK1 (human) (UniProt Q9BQI3)"}, "[23]": {"target": "LIMK1 (human) (UniProt P53667)"}, "[24]": {"tested_on": "LRRK2 (human), Q5S007 [G2019S]"}, "[25]": {"target": "GSK3A (human) (UniProt P49840)", "sequence (P49840 whole entry, looked up)": "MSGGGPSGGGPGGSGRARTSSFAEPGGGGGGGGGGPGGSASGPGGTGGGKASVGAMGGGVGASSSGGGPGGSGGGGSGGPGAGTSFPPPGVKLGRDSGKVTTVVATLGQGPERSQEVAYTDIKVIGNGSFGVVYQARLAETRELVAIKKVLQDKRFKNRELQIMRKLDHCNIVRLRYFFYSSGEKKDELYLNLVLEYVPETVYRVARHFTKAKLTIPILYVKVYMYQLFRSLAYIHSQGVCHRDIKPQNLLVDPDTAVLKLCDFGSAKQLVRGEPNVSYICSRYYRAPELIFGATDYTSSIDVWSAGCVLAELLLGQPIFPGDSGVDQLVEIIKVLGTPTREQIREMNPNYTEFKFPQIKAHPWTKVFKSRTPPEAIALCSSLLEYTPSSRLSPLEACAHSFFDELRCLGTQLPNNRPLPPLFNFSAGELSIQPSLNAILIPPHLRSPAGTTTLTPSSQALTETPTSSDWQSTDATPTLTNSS"}, "[26]": {"target": "TBK1 (human) (UniProt Q9UHD2)", "sequence (Q9UHD2 whole entry, looked up)": "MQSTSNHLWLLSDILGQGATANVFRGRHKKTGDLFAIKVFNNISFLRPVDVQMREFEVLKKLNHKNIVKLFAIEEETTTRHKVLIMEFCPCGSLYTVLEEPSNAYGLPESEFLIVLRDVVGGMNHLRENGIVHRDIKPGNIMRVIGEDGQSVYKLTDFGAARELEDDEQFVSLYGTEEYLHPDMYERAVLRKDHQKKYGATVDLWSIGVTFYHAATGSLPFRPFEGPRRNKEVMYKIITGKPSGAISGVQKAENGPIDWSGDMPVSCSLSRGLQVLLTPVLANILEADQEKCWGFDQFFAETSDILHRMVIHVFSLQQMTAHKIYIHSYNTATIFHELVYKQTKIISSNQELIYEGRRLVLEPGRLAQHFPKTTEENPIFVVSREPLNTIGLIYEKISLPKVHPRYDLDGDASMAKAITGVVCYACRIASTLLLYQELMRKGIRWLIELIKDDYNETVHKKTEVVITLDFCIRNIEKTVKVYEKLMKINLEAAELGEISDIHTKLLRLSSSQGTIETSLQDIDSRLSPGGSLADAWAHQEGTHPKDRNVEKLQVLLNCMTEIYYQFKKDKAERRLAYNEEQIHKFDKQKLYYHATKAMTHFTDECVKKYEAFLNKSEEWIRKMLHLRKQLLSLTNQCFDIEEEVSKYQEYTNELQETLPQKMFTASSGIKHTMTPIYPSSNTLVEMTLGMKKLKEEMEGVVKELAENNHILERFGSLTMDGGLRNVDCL"}, "[27]": {"target": "PIM3 (human) (UniProt Q86V86)"}, "[28]": {"target": "CSNK1D (human) (UniProt P48730)"}, "[29]": {"target": "SRPK1 (human) (UniProt Q96SB4)", "sequence (Q96SB4 whole entry, looked up)": "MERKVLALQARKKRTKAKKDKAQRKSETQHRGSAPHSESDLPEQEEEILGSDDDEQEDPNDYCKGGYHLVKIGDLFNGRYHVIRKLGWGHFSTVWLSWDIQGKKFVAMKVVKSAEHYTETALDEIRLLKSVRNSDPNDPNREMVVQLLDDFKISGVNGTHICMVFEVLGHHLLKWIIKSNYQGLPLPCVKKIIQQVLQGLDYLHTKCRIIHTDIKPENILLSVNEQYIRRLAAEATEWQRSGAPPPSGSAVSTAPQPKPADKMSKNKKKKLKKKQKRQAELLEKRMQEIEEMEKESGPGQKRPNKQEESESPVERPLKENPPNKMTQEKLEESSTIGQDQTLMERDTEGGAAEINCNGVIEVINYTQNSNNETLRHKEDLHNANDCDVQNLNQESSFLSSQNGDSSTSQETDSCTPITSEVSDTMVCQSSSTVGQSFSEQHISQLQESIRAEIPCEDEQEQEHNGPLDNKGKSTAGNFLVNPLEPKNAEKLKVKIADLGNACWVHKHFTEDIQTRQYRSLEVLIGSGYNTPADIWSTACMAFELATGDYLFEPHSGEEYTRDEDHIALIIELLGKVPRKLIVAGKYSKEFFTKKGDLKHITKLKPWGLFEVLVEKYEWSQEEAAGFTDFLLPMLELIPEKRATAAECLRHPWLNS"}, "[30]": {"target": "ULK3 (human) (UniProt Q6PHR2)"}, "[31]": {"target": "MAPK8 (human) (UniProt P45983)"}, "[32]": {"target": "PRKCD (human) (UniProt Q05655)"}, "[33]": {"target": "NEK2 (human) (UniProt P51955)", "sequence (P51955 whole entry, looked up)": "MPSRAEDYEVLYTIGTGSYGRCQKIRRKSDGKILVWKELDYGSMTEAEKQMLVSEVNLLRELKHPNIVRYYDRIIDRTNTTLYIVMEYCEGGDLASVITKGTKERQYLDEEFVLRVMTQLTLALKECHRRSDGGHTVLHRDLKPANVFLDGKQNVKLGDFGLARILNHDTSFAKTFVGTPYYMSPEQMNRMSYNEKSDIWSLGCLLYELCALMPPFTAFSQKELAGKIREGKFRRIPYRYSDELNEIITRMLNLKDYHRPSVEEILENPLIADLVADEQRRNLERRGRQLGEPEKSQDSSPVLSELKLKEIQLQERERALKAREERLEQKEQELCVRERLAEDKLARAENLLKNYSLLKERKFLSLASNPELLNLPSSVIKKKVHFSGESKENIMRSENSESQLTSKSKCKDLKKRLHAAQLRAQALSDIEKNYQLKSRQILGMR"}, "[34]": {"target": "CAMK2A (human) (UniProt Q9UQM7)"}, "[35]": {"target": "TLK1 (human) (UniProt Q9UKI8)"}, "[36]": {"target": "DDR2 (human) (UniProt Q16832)"}, "[37]": {"target": "PLK1 (human) (UniProt P53350)", "sequence (P53350 whole entry, looked up)": "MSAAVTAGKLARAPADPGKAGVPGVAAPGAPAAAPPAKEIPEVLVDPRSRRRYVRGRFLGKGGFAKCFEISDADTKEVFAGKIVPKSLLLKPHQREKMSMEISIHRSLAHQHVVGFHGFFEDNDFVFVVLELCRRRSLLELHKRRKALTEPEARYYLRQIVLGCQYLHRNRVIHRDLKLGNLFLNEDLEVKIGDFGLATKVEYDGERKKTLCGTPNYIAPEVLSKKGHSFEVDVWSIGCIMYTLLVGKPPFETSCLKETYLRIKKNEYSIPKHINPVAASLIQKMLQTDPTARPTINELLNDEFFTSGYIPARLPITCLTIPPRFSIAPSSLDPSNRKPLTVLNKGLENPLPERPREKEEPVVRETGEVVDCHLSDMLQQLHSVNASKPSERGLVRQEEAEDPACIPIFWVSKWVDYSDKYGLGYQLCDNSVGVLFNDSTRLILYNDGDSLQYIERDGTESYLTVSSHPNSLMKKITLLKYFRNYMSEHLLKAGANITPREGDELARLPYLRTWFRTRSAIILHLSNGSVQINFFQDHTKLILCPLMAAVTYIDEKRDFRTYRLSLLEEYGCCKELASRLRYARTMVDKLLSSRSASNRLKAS"}, "[38]": {"tested_on": "EGFR (human), P00533 [T790M/L858R]"}, "[39]": {"tested_on": "EGFR (human), P00533 [747-751 del / S ins]"}, "[40]": {"target": "NTRK2 (human) (UniProt Q16620)"}, "[41]": {"tested_on": "EGFR (human), P00533 [A750P; 747-749 del]"}}}
{"smiles": "CC(C)n1nc(-c2cc3cc(O)ccc3[nH]2)c2c(N)ncnc21", "values": [{"measurement": "kinase still bound, per cent of control", "setting": "[1]", "result": 87, "unit": "%"}, {"measurement": "kinase still bound, per cent of control", "setting": "[2]", "result": 44, "unit": "%"}, {"measurement": "kinase still bound, per cent of control", "setting": "[3]", "result": 48, "unit": "%"}, {"measurement": "kinase still bound, per cent of control", "setting": "[4]", "result": 52, "unit": "%"}, {"measurement": "kinase still bound, per cent of control", "setting": "[5]", "result": 79, "unit": "%"}, {"measurement": "kinase still bound, per cent of control", "setting": "[6]", "result": 60, "unit": "%"}, {"measurement": "kinase still bound, per cent of control", "setting": "[7]", "result": 9.7, "unit": "%"}, {"measurement": "kinase still bound, per cent of control", "setting": "[8]", "result": 5.8, "unit": "%"}, {"measurement": "kinase still bound, per cent of control", "setting": "[9]", "result": 2, "unit": "%"}, {"measurement": "kinase still bound, per cent of control", "setting": "[10]", "result": 96, "unit": "%"}, {"measurement": "kinase still bound, per cent of control", "setting": "[11]", "result": 31, "unit": "%"}, {"measurement": "kinase still bound, per cent of control", "setting": "[12]", "result": 75, "unit": "%"}, {"measurement": "kinase still bound, per cent of control", "setting": "[13]", "result": 16, "unit": "%"}, {"measurement": "kinase still bound, per cent of control", "setting": "[14]", "result": 46, "unit": "%"}, {"measurement": "kinase still bound, per cent of control", "setting": "[15]", "result": 0.1, "unit": "%"}, {"measurement": "kinase still bound, per cent of control", "setting": "[16]", "result": 45, "unit": "%"}, {"measurement": "kinase still bound, per cent of control", "setting": "[17]", "result": 100, "unit": "%"}, {"measurement": "kinase still bound, per cent of control", "setting": "[18]", "result": 0.35, "unit": "%"}, {"measurement": "kinase still bound, per cent of control", "setting": "[19]", "result": 100, "unit": "%"}, {"measurement": "kinase still bound, per cent of control", "setting": "[20]", "result": 2.8, "unit": "%"}, {"measurement": "kinase still bound, per cent of control", "setting": "[21]", "result": 0, "unit": "%"}, {"measurement": "kinase still bound, per cent of control", "setting": "[22]", "result": 93, "unit": "%"}, {"measurement": "kinase still bound, per cent of control", "setting": "[23]", "result": 73, "unit": "%"}, {"measurement": "kinase still bound, per cent of control", "setting": "[24]", "result": 2.6, "unit": "%"}, {"measurement": "kinase still bound, per cent of control", "setting": "[25]", "result": 74, "unit": "%"}, {"measurement": "kinase still bound, per cent of control", "setting": "[26]", "result": 84, "unit": "%"}, {"measurement": "kinase still bound, per cent of control", "setting": "[27]", "result": 31, "unit": "%"}, {"measurement": "per cent of control", "setting": "[28]", "result": 2.4, "unit": "%"}, {"measurement": "kinase still bound, per cent of control", "setting": "[29]", "result": 100, "unit": "%"}, {"measurement": "kinase still bound, per cent of control", "setting": "[30]", "result": 65, "unit": "%"}, {"measurement": "kinase still bound, per cent of control", "setting": "[31]", "result": 89, "unit": "%"}, {"measurement": "kinase still bound, per cent of control", "setting": "[32]", "result": 39, "unit": "%"}, {"measurement": "kinase still bound, per cent of control", "setting": "[33]", "result": 75, "unit": "%"}, {"measurement": "kinase still bound, per cent of control", "setting": "[34]", "result": 53, "unit": "%"}, {"measurement": "kinase still bound, per cent of control", "setting": "[35]", "result": 75, "unit": "%"}, {"measurement": "kinase still bound, per cent of control", "setting": "[36]", "result": 11, "unit": "%"}, {"measurement": "kinase still bound, per cent of control", "setting": "[37]", "result": 87, "unit": "%"}]}
{"smiles": "COC(=O)Nc1ccc(-c2nc(N3CCOCC3)c3cnn(C4CCN(C(=O)OC)CC4)c3n2)cc1", "values": [{"measurement": "kinase still bound, per cent of control", "setting": "[1]", "result": 81, "unit": "%"}, {"measurement": "kinase still bound, per cent of control", "setting": "[2]", "result": 82, "unit": "%"}, {"measurement": "kinase still bound, per cent of control", "setting": "[3]", "result": 100, "unit": "%"}, {"measurement": "kinase still bound, per cent of control", "setting": "[4]", "result": 95, "unit": "%"}, {"measurement": "kinase still bound, per cent of control", "setting": "[5]", "result": 100, "unit": "%"}, {"measurement": "kinase still bound, per cent of control", "setting": "[6]", "result": 100, "unit": "%"}, {"measurement": "kinase still bound, per cent of control", "setting": "[7]", "result": 57, "unit": "%"}, {"measurement": "kinase still bound, per cent of control", "setting": "[8]", "result": 74, "unit": "%"}, {"measurement": "kinase still bound, per cent of control", "setting": "[9]", "result": 100, "unit": "%"}, {"measurement": "kinase still bound, per cent of control", "setting": "[10]", "result": 85, "unit": "%"}, {"measurement": "kinase still bound, per cent of control", "setting": "[38]", "result": 100, "unit": "%"}, {"measurement": "kinase still bound, per cent of control", "setting": "[11]", "result": 86, "unit": "%"}, {"measurement": "kinase still bound, per cent of control", "setting": "[12]", "result": 68, "unit": "%"}, {"measurement": "kinase still bound, per cent of control", "setting": "[13]", "result": 62, "unit": "%"}, {"measurement": "kinase still bound, per cent of control", "setting": "[14]", "result": 100, "unit": "%"}, {"measurement": "kinase still bound, per cent of control", "setting": "[15]", "result": 78, "unit": "%"}, {"measurement": "kinase still bound, per cent of control", "setting": "[39]", "result": 100, "unit": "%"}, {"measurement": "kinase still bound, per cent of control", "setting": "[40]", "result": 100, "unit": "%"}, {"measurement": "kinase still bound, per cent of control", "setting": "[16]", "result": 84, "unit": "%"}, {"measurement": "kinase still bound, per cent of control", "setting": "[17]", "result": 100, "unit": "%"}, {"measurement": "kinase still bound, per cent of control", "setting": "[18]", "result": 100, "unit": "%"}, {"measurement": "kinase still bound, per cent of control", "setting": "[19]", "result": 80, "unit": "%"}, {"measurement": "kinase still bound, per cent of control", "setting": "[20]", "result": 100, "unit": "%"}, {"measurement": "kinase still bound, per cent of control", "setting": "[21]", "result": 88, "unit": "%"}, {"measurement": "kinase still bound, per cent of control", "setting": "[22]", "result": 56, "unit": "%"}, {"measurement": "kinase still bound, per cent of control", "setting": "[23]", "result": 100, "unit": "%"}, {"measurement": "kinase still bound, per cent of control", "setting": "[24]", "result": 80, "unit": "%"}, {"measurement": "kinase still bound, per cent of control", "setting": "[25]", "result": 100, "unit": "%"}, {"measurement": "kinase still bound, per cent of control", "setting": "[26]", "result": 99, "unit": "%"}, {"measurement": "kinase still bound, per cent of control", "setting": "[27]", "result": 100, "unit": "%"}, {"measurement": "per cent of control", "setting": "[28]", "result": 100, "unit": "%"}, {"measurement": "kinase still bound, per cent of control", "setting": "[29]", "result": 100, "unit": "%"}, {"measurement": "kinase still bound, per cent of control", "setting": "[41]", "result": 88, "unit": "%"}, {"measurement": "kinase still bound, per cent of control", "setting": "[30]", "result": 88, "unit": "%"}, {"measurement": "kinase still bound, per cent of control", "setting": "[31]", "result": 100, "unit": "%"}, {"measurement": "kinase still bound, per cent of control", "setting": "[32]", "result": 99, "unit": "%"}, {"measurement": "kinase still bound, per cent of control", "setting": "[33]", "result": 100, "unit": "%"}, {"measurement": "kinase still bound, per cent of control", "setting": "[34]", "result": 95, "unit": "%"}, {"measurement": "kinase still bound, per cent of control", "setting": "[35]", "result": 91, "unit": "%"}, {"measurement": "kinase still bound, per cent of control", "setting": "[36]", "result": 100, "unit": "%"}, {"measurement": "kinase still bound, per cent of control", "setting": "[37]", "result": 90, "unit": "%"}]}
